Test results reported in PubChem BioAssay AID1918945 (Molecular Pharmacology Branch, DTP, NCI, 2023).

System: 883617-216-R-J1-PDC complex spheroid viability
Assay: Anticancer human tumor 883617-216-R-J1-PDC patient-derived bladder carcinoma cell line growth inhibition
Details: for IC50: curve of first compound; for viability, T/C: stronger effect = lower value
Summary of the method: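 Complex spheroids of tumor cells with HUVEC and human MSCs, exposed to iadademstat combined with other agents. Each agent tested in half-log steps from near clinical Cmax (else 10 microM top), DMSO ≤0.25%.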
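Also: exposure lasted seven days after three days of spheroid growth.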
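For viability, T/C in this document: 100% = DMSO vehicle control luminescence.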

Compound: CC(C)CC(NC(=O)CNC(=O)c1cc(Cl)ccc1Cl)B1OC(=O)CC(CC(=O)O)(C(=O)O)O1 (stereo not given) + NC1CC1c1ccc(-c2cccc(O)c2)cc1
- IC50 (second compound 0.1 µM): 3.66 nM
- IC50 (second compound 0.316 µM): 3.45 nM
- IC50 (second compound 1 µM): 2.66 nM
- IC50 (second compound 3.16 µM): 2.61 nM
- IC50 (second compound 10 µM): 1.86 nM
- viability, T/C (second compound 0.1 µM, first compound 0.000316 µM): 95.3%
- viability, T/C (second compound 0.1 µM, first compound 0.001 µM): 97.8%
- viability, T/C (second compound 0.1 µM, first compound 0.00316 µM): 49.6%
- viability, T/C (second compound 0.1 µM, first compound 0.01 µM): 21.4%
- viability, T/C (second compound 0.1 µM, first compound 0.0316 µM): 0.86%
- viability, T/C (second compound 0.1 µM, first compound 0.1 µM): 0.21%
- viability, T/C (second compound 0.316 µM, first compound 0.000316 µM): 123%
- viability, T/C (second compound 0.316 µM, first compound 0.001 µM): 121%
- viability, T/C (second compound 0.316 µM, first compound 0.00316 µM): 50.4%
- viability, T/C (second compound 0.316 µM, first compound 0.01 µM): 18%
- viability, T/C (second compound 0.316 µM, first compound 0.0316 µM): 1%
- viability, T/C (second compound 0.316 µM, first compound 0.1 µM): 0.16%
- viability, T/C (second compound 1 µM, first compound 0.000316 µM): 105%
- viability, T/C (second compound 1 µM, first compound 0.001 µM): 108%
- viability, T/C (second compound 1 µM, first compound 0.00316 µM): 39.5%
- viability, T/C (second compound 1 µM, first compound 0.01 µM): 18.4%
- viability, T/C (second compound 1 µM, first compound 0.0316 µM): 0.85%
- viability, T/C (second compound 1 µM, first compound 0.1 µM): 0.15%
- viability, T/C (second compound 3.16 µM, first compound 0.000316 µM): 97.7%
- viability, T/C (second compound 3.16 µM, first compound 0.001 µM): 93.3%
- viability, T/C (second compound 3.16 µM, first compound 0.00316 µM): 37.4%
- viability, T/C (second compound 3.16 µM, first compound 0.01 µM): 19.5%
- viability, T/C (second compound 3.16 µM, first compound 0.0316 µM): 0.76%
- viability, T/C (second compound 3.16 µM, first compound 0.1 µM): 0.15%
- viability, T/C (second compound 10 µM, first compound 0.000316 µM): 81.1%
- viability, T/C (second compound 10 µM, first compound 0.001 µM): 69.3%
- viability, T/C (second compound 10 µM, first compound 0.00316 µM): 33.2%
- viability, T/C (second compound 10 µM, first compound 0.01 µM): 10.2%
- viability, T/C (second compound 10 µM, first compound 0.0316 µM): 0.25%
- viability, T/C (second compound 10 µM, first compound 0.1 µM): 0.36%

Compound: Nc1ccccc1NC(=O)c1ccc(CNC(=O)OCc2cccnc2)cc1 + NC1CCC(NC2CC2c2ccccc2)CC1
- IC50 (second compound 0.1 µM): 206 nM
- IC50 (second compound 0.316 µM): 205 nM
- IC50 (second compound 1 µM): 233 nM
- IC50 (second compound 3.16 µM): 216 nM
- IC50 (second compound 10 µM): 235 nM
- viability, T/C (second compound 0.1 µM, first compound 0.00949 µM): 115%
- viability, T/C (second compound 0.1 µM, first compound 0.03 µM): 89.3%
- viability, T/C (second compound 0.1 µM, first compound 0.0949 µM): 73.5%
- viability, T/C (second compound 0.1 µM, first compound 0.3 µM): 39.5%
- viability, T/C (second compound 0.1 µM, first compound 0.949 µM): 15.8%
- viability, T/C (second compound 0.1 µM, first compound 3 µM): 0.37%
- viability, T/C (second compound 0.316 µM, first compound 0.00949 µM): 112%
- viability, T/C (second compound 0.316 µM, first compound 0.03 µM): 96.2%
- viability, T/C (second compound 0.316 µM, first compound 0.0949 µM): 74.1%
- viability, T/C (second compound 0.316 µM, first compound 0.3 µM): 36.5%
- viability, T/C (second compound 0.316 µM, first compound 0.949 µM): 16.6%
- viability, T/C (second compound 0.316 µM, first compound 3 µM): 0.73%
- viability, T/C (second compound 1 µM, first compound 0.00949 µM): 104%
- viability, T/C (second compound 1 µM, first compound 0.03 µM): 90.2%
- viability, T/C (second compound 1 µM, first compound 0.0949 µM): 76.5%
- viability, T/C (second compound 1 µM, first compound 0.3 µM): 41.4%
- viability, T/C (second compound 1 µM, first compound 0.949 µM): 17.5%
- viability, T/C (second compound 1 µM, first compound 3 µM): 1.37%
- viability, T/C (second compound 3.16 µM, first compound 0.00949 µM): 102%
- viability, T/C (second compound 3.16 µM, first compound 0.03 µM): 103%
- viability, T/C (second compound 3.16 µM, first compound 0.0949 µM): 66.6%
- viability, T/C (second compound 3.16 µM, first compound 0.3 µM): 40.4%
- viability, T/C (second compound 3.16 µM, first compound 0.949 µM): 21.5%
- viability, T/C (second compound 3.16 µM, first compound 3 µM): 1.18%
- viability, T/C (second compound 10 µM, first compound 0.00949 µM): 106%
- viability, T/C (second compound 10 µM, first compound 0.03 µM): 88%
- viability, T/C (second compound 10 µM, first compound 0.0949 µM): 66.5%
- viability, T/C (second compound 10 µM, first compound 0.3 µM): 45.9%
- viability, T/C (second compound 10 µM, first compound 0.949 µM): 23.6%
- viability, T/C (second compound 10 µM, first compound 3 µM): 0.93%
